In brackets after ≈: the same amount, converted by molar mass.
System: P388 mouse leukemia cells
Assay: P388 mouse leukemia cell assay
Type: cell-based
Conditions: 48 hours
Experimental: P388 mouse leukemia cells are grown in Dulbecco MEM medium with 10% horse serum 4 mM, glutamine, and 20 μg/ml gentamycin (Biologos, Inc.). Cells are incubated in 10% CO2 and subcultured 2 times per week.
1. Add composition to each well of a 24-well plate or tube and allow solvent to evaporate to dryness.
2. Add 2 ml (1.2×10^5) cells to each well or tube and mix.
3. Incubate in 10% CO2 at 37° for 48 hours.
4. Read plates with an inverted microscope, scoring activity from 1+ to 4+ as follows: ND (not detectable), >90%, 1+, 75-90%; 2+, 50-74%; 3+, 25-49%; 4+, <25% of control growth. Alternatively, scoring may be expressed as IC50 which represents the minimum concentration of the composition required to inhibit 50% of the cell growth on the plate. Cell counts are performed on each tube and results are reported as percent of control.

Question: Which IC50 does the source give for `Cc1ccc(C(C)C)cc2c(C)ccc1-2` [Composition (2), guaiazulene] here?
Answer: 35 µg/mL (≈ 176 µM)

Question: Which IC50 does the source give for `Cc1cc2c(cc3c(C)ccc1-3)C(C)CO2` (stereo not drawn) [Composition (1), dihydrolinderazulene] here?
Answer: 35 µg/mL (≈ 165 µM)

Question: `Cc1cc2occ(C)c2cc2c(C)ccc1-2` [Composition (3), linderazulene] was tested. Which IC50 did it give?
Answer: 50 µg/mL (≈ 238 µM)

System: mixed lymphocytes (BALB/c+C57BL/6)
Assay: Mixed lymphocyte reaction (MLR) assay
Type: cell-based, murine
Conditions: Mus musculus, 5 ug/ml, percent of positive control, 3H-thymidine, immunostimulatory criterion 150% or greater, read-out: Immunomodulatory activity, % Reference
Experimental: The assay method was uded to identify immune response modifiers of the compositions of Formulae I-III corresponding to composition 1-3 of the samples.
Aseptically removed spleens from BALB/c and C57BL/6 mice were homogenized, separately, in RPMI 1640 medium with 10% fetal calf serum, 2% L-glutamine,15 mM HEPES, 1% antibiotic-antimycotic solution and 25 μg/ml gentamycin (GIBCO). Lymphocytes were then derived by differential cetrifugation after red blood cell lysing and serial cell washing in complete media. Cells were adjusted to equal concentrations (2.5×10^6 cells/ml) and combined after removal of negative control aliquots. Incubation conditions for the cells were 5% CO2, 95% air at 37° C.
1. Add composition to each well of a 96-well plate and allow solvent to evaporate to dryness, if not aqueous.
2. Add 0.2 ml mixed lymphocytes (BALB/c+C57BL/6) to each well and mix.
3. Incubate in 5% CO2 at 37° C. for 86 hours.
4. Pulse wells with 0.1 ml ^3 H-thymidine (1 uCi/well).
5. Incubate in 5% CO2 at 37° C. for 6 hours.
6. Harvest plates and add 2 ml scintillant to each vial containing a filter disc.
7. Count vials in a liquid scintillation counter (Beckman).
8. Average replicate counts and report data as percent of positive control. The criteria for immunostimulatory effectiveness is a value of 150%, or greater, above control values for mixed lymphocytes in culture.

Question: How did the activity at 5 µg/mL turn out when `Cc1ccc(C(C)C)cc2c(C)ccc1-2` [Composition (2), guaiazulene] was run?
Answer: 284%

Question: Which activity at 5 µg/mL does the source give for `Cc1cc2c(cc3c(C)ccc1-3)C(C)CO2` (stereo not drawn) [Composition (1), dihydrolinderazulene] here?
Answer: 255%

Question: For `Cc1cc2occ(C)c2cc2c(C)ccc1-2` [Composition (3), linderazulene], which activity at 5 µg/mL is on record?
Answer: 155%

Same assay, conditions: Mus musculus, 50 ug/ml, percent of positive control, 3H-thymidine, immunostimulatory criterion 150% or greater, read-out: Immunomodulatory activity, % Reference

Question: Which activity at 50 µg/mL does the source give for `Cc1ccc(C(C)C)cc2c(C)ccc1-2` [Composition (2), guaiazulene] here?
Answer: 351%

Question: `Cc1cc2c(cc3c(C)ccc1-3)C(C)CO2` (stereo not drawn) [Composition (1), dihydrolinderazulene] was tested. Which activity at 50 µg/mL did it give?
Answer: 1%

Question: `Cc1cc2occ(C)c2cc2c(C)ccc1-2` [Composition (3), linderazulene] was tested. Which activity at 50 µg/mL did it give?
Answer: 19%

System: C. albicans
Assay: Minimum inhibitory concentration (MIC), anti-Candida assay
Type: cell-based
Conditions: approximately 1000 cells/mL, 37° C. overnight
Experimental: Candida albicans: C. albicans (Ca) is grown on Sabouraud dextrose agar to produce single colonies one of which is used to inoculate Sabouraud dextrose broth. The broth is incubated at 37° C. with shaking at 200 rpm for 18 hrs., the resultant culture is frozen with 10% (v/v) glycerol at -80° C. and used as the inoculum for the anti-Candida assay. Two-fold dilutions of the drug are prepared in 50 μL volumes of Sabouraud dextrose broth using 96-well microtiter plates. An inoculum of C. albicans is added in a small volume to give a cell density of approximately 1000 cells/mL. Plates are incubated at 37° C. overnight. 10 uL of Triphenyl tetrazolium chloride (1% w/v) is then added to each well; a further 2 hour incubation results in a deep coloration of the microorganism.

Question: How did the MIC turn out when `Cc1ccc(C(C)C)cc2c(C)ccc1-2` [Composition (2), guaiazulene] was run?
Answer: 25 µg/mL (≈ 126 µM)

Question: Which MIC does the source give for `Cc1cc2c(cc3c(C)ccc1-3)C(C)CO2` (stereo not drawn) [Composition (1), dihydrolinderazulene] here?
Answer: 50 µg/mL (≈ 236 µM)

Question: For `Cc1cc2occ(C)c2cc2c(C)ccc1-2` [Composition (3), linderazulene], which MIC is on record?
Answer: 12.5 µg/mL (≈ 59.4 µM)
